Assay results as given in PMC7576608, “Mechanisms of telomerase inhibition by oxidized and therapeutic dNTPs” (Nature Communications, 2020).
Several values for one entry are separate records, joined by “and”; a condition that tells them apart may be missing. Equal values may be shown once. Read-outs that look alike come from different tables or passages of the source.

Molecular target: telomerase (Homo sapiens, UniProt O14746)
Assay: Telomerase repeat processivity IC50: modified dNTP titrated into reactions with all four natural dNTPs
Format: biochemical
Set-up: made in house; anti-FLAG immunopurification, eluted with 3xFLAG peptide
Summary of the method: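 Immunopurified telomerase was run with cellular-relevant levels of all four natural dNTPs plus modified dNTP at 0 to 10,000 μM, for 1 h at 37 °C, and products were resolved on a denaturing gel by phosphorimaging. Repeat processivity R1/2 = −ln(2)/slope of ln(100−%LB) vs repeat number. IC50 is the concentration halving repeat processivity.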

[1] = cellular relevant natural dNTPs, modified dNTP titrated 0 to 10,000 μM, based on repeat processivity, mean ± SD, read-out: Telomerase processivity IC50
[2] = log of processivity IC50 (concentration in μM), Supplementary Fig 8b, read-out: Log IC50 (converted)
[3] = fit of R 1/2 vs log(concentration), 8-oxo-dGTP, replicates N1-N4

telomerase, sequence (O14746 whole entry): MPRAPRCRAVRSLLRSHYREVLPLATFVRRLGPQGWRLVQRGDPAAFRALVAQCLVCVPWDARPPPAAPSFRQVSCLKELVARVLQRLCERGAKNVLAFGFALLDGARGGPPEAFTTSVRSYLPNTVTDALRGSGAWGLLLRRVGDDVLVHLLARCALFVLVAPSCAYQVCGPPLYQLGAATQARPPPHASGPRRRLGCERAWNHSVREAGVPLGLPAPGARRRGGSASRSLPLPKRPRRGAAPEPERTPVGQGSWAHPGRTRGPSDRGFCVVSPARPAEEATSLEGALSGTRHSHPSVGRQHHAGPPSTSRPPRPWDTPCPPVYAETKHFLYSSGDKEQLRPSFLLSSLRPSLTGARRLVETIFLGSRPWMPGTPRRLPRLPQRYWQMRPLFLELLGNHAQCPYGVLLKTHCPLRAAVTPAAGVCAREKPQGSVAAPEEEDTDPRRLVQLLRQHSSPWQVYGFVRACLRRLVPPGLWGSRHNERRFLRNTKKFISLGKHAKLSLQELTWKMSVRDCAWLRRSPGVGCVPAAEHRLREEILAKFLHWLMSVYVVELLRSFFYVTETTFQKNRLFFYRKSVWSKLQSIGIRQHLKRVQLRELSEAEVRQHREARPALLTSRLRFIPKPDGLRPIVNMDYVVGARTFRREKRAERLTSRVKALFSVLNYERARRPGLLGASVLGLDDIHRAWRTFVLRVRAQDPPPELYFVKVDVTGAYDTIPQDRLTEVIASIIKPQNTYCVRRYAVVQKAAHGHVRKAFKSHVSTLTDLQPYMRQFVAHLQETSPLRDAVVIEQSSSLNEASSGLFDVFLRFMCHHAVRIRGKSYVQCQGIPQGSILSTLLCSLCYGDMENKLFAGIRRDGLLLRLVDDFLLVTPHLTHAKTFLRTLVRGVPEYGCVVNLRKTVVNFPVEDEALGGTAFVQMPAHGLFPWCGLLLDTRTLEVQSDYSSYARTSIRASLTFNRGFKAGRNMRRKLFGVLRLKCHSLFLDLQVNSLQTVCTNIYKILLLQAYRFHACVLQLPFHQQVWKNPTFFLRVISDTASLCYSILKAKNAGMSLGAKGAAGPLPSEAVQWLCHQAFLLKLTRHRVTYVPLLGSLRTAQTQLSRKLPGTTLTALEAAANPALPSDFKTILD

Nc1nc(O)nc2c1ncn2C1CC(O)C(COP(=O)(O)OP(=O)(O)OP(=O)(O)O)O1 (centres unmarked) [2-OH-dATP]
YIntercept (line fit of ln(100-%LB) vs # telomere repeats) (2-OH-dATP 31μM): 3.86 and 4.26 and 3.87
ln(100-%LB) (2-OH-dATP 31μM, telomere repeat 1): 3.80 and 4.29 and 3.78
ln(100-%LB) (2-OH-dATP 31μM, telomere repeat 2): 3.30 and 3.65 and 3.08
ln(100-%LB) (2-OH-dATP 31μM, telomere repeat 3): 2.75 and 3.04 and 2.41
ln(100-%LB) (2-OH-dATP 31μM, telomere repeat 4): 2.47 and 2.74 and 2.04
ln(100-%LB) (2-OH-dATP 31μM, telomere repeat 5): 2.09 and 2.42 and 1.67
ln(100-%LB) (2-OH-dATP 31μM, telomere repeat 6): 1.74 and 2.03 and 1.15
Processivity R 1/2 (2-OH-dATP 31.25 μM): 2.08 and 3.03 and 1.6
Processivity R 1/2 (2-OH-dATP 62.5 μM): 1.82 and 1.19 and 1.25
Processivity R 1/2 (2-OH-dATP 250μM): 0.71 and 1.05 and 0.94
YIntercept (line fit of ln(100-%LB) vs # telomere repeats) (2-OH-dATP 250μM): 4.34 and 4.78 and 4.14
ln(100-%LB) (2-OH-dATP 250μM, telomere repeat 1): 3.46 and 4.32 and 3.82
ln(100-%LB) (2-OH-dATP 250μM, telomere repeat 2): 2.39 and 3.46 and 2.75
Processivity R 1/2 (2-OH-dATP 500μM): 0.82 and 0.52 and 1.02
YIntercept (line fit of ln(100-%LB) vs # telomere repeats) (2-OH-dATP 500μM): 3.92 and 4.75 and 4.04
ln(100-%LB) (2-OH-dATP 500μM, telomere repeat 1): 3.41 and 4.41 and 3.82
ln(100-%LB) (2-OH-dATP 500μM, telomere repeat 2): 2.30 and 3.46 and 2.66
YIntercept (line fit of ln(100-%LB) vs # telomere repeats) (2-OH-dATP 750μM): 4.21 and 5.17 and 4.34
ln(100-%LB) (2-OH-dATP 750μM, telomere repeat 1): 2.99 and 4.03 and 3.90
YIntercept (line fit of ln(100-%LB) vs # telomere repeats) (2-OH-dATP 1000μM): 4.31 and 5.20 and 4.71
ln(100-%LB) (2-OH-dATP 1000μM, telomere repeat 1): 2.98 and 4.07 and 3.49
ln(100-%LB) (2-OH-dATP 1500μM, telomere repeat 2): 0.48
Processivity R 1/2 (2-OH-dATP 2000 μM): 0
IC50 (2-OH-dATP, mean of N1-N3, SD 66.28, read-out: Mean IC50 (processivity R 1/2)): 103 µM
Bottom (best-fit, processivity R 1/2 vs log concentration) (2-OH-dATP, per replicate N1-N3): 0.09 and -0.00587 and 0.62
HillSlope (processivity) (2-OH-dATP, per replicate N1-N3): -1.28 and -0.83 and -0.032
Span (best-fit, processivity R 1/2 vs log concentration) (2-OH-dATP, per replicate N1-N3): 2.29 and 2.84 and 1.84
Top (best-fit, processivity R 1/2 vs log concentration) (2-OH-dATP, per replicate N1-N3): 2.38 and 2.84 and 2.47
LogIC50 (processivity) (2-OH-dATP, per replicate N1-N3, concentration in μM): 2.24 and 1.99 and 1.60
IC50 (2-OH-dATP, per replicate N1-N3, read-out: IC50 (processivity R 1/2)): 172 µM and 97 µM and 39.4 µM
IC50 [1]: 103 ± 66 µM
IC50 [2]: 126 µM

Nc1nc2c([nH]c(=O)n2C2CC(O)C(COP(=O)(O)OP(=O)(O)OP(=O)(O)O)O2)c(=O)[nH]1 (centres unmarked) [8-oxo-dGTP]
Processivity R 1/2 (8-oxo-dGTP 156.25 μM, replicates n1-n4): 3.18 and 2.53 and 3.23
YIntercept (line fit of ln(100-%LB) vs # telomere repeats) (8-oxo-dGTP 160μM, n1-n3): 3.28 and 3.52 and 3.30
ln(100-%LB) (8-oxo-dGTP 160μM, telomere repeat 1, n1-n3): 3.67 and 3.81 and 3.65
ln(100-%LB) (8-oxo-dGTP 160μM, telomere repeat 2, n1-n3): 3.11 and 3.28 and 3.14
ln(100-%LB) (8-oxo-dGTP 160μM, telomere repeat 3, n1-n3): 2.62 and 2.68 and 2.65
ln(100-%LB) (8-oxo-dGTP 160μM, telomere repeat 4, n1-n3): 2.38 and 2.37 and 2.44
ln(100-%LB) (8-oxo-dGTP 160μM, telomere repeat 5, n1-n3): 2.10 and 2.03 and 2.19
ln(100-%LB) (8-oxo-dGTP 160μM, telomere repeat 6, n1-n3): 1.76 and 1.70 and 1.93
ln(100-%LB) (8-oxo-dGTP 160μM, telomere repeat 7, n1-n3): 1.44 and 1.37 and 1.64
ln(100-%LB) (8-oxo-dGTP 160μM, telomere repeat 8, n1-n3): 1.22 and 1.14 and 1.43
ln(100-%LB) (8-oxo-dGTP 160μM, telomere repeat 9, n1-n3): 0.99 and 0.88 and 1.23
ln(100-%LB) (8-oxo-dGTP 160μM, telomere repeat 10, n1-n3): 0.74 and 0.58 and 1.00
YIntercept (line fit of ln(100-%LB) vs # telomere repeats) (8-oxo-dGTP 625μM, n1-n3): 3.24 and 3.54 and 3.75
Processivity R 1/2 (8-oxo-dGTP 625 μM, replicates n1-n4): 2.67 and 2.52 and 3.04
ln(100-%LB) (8-oxo-dGTP 625μM, telomere repeat 1, n1-n3): 3.67 and 3.79 and 3.89
ln(100-%LB) (8-oxo-dGTP 625μM, telomere repeat 2, n1-n3): 3.11 and 3.31 and 3.40
ln(100-%LB) (8-oxo-dGTP 625μM, telomere repeat 3, n1-n3): 2.62 and 2.84 and 2.91
ln(100-%LB) (8-oxo-dGTP 625μM, telomere repeat 4, n1-n3): 2.38 and 2.60 and 2.62
ln(100-%LB) (8-oxo-dGTP 625μM, telomere repeat 5, n1-n3): 2.10 and 2.36 and 2.34
ln(100-%LB) (8-oxo-dGTP 625μM, telomere repeat 6, n1-n3): 1.76 and 2.09 and 2.01
ln(100-%LB) (8-oxo-dGTP 625μM, telomere repeat 7, n1-n3): 1.44 and 1.77 and 1.66
ln(100-%LB) (8-oxo-dGTP 625μM, telomere repeat 8, n1-n3): 1.22 and 1.56 and 1.41
ln(100-%LB) (8-oxo-dGTP 625μM, telomere repeat 9, n1-n3): 0.99 and 1.31 and 1.14
ln(100-%LB) (8-oxo-dGTP 625μM, telomere repeat 10, n1-n3): 0.74 and 1.05 and 0.85
ln(100-%LB) (8-oxo-dGTP 625μM, telomere repeat 11, n1-n3): 0.51 and 0.79 and 0.55
ln(100-%LB) (8-oxo-dGTP 625μM, telomere repeat 12, n1-n3): 0.32 and 0.58 and 0.29
YIntercept (line fit of ln(100-%LB) vs # telomere repeats) (8-oxo-dGTP 2500μM, n1-n3): 4.49 and 4.30 and 4.68
Processivity R 1/2 (8-oxo-dGTP 2500 μM, replicates n1-n4): 0.72 and 0.43 (2×) and 0.55
ln(100-%LB) (8-oxo-dGTP 2500μM, telomere repeat 1, n1-n3): 3.44 and 3.70 and 3.07
Processivity R 1/2 (8-oxo-dGTP 5000 μM, replicates n1-n4): 0
Processivity R 1/2 (8-oxo-dGTP 10000 μM, replicates n1-n4): 0
IC50 [1]: 1690 ± 172 µM
LogIC50 (fit of R 1/2 vs log(concentration μM), 8-oxo-dGTP, replicates N1-N4): 3.24 and 3.27 and 3.16 and 3.23
Bottom (best-fit value) [3]: 0.33 and -0.00509 and -0.0042 and -0.0316
HillSlope [3]: -4.72 and -6.07 and -3.06 and -3.86
Span (best-fit value) [3]: 2.87 and 3.02 and 2.71 and 3.30
Top (best-fit value) [3]: 3.21 and 3.01 and 2.70 and 3.27
IC50 [2]: 2000 µM
IC50 (repeat processivity R 1/2, 8-oxo-dGTP, single replicates N1-N4, read-out: IC50): 1740 µM and 1870 µM and 1460 µM and 1690 µM
